Numbering of substitutions follows the chain as printed.
What was measured:
Type in all cases: biochemical
USP25Δtip WT = target: T1, USP25Δtip WT (Homo sapiens, UniProt Q9UHP3, A536G/DEL465-477/DEL482-535/P478G/P537S); assay: Ub-Rho110 dose–response assay, USP25Δtip wt; conditions: single replicates
T1 construct: 6xHis or thioredoxin-6xHis (N, cleaved yes); made in house; host or cells: E. coli BL21star (DE3)
T1 sequence (Q9UHP3 with tags, fused parts or gaps DEL465-477/P478G/DEL482-535/A536G/P537S limits assumed): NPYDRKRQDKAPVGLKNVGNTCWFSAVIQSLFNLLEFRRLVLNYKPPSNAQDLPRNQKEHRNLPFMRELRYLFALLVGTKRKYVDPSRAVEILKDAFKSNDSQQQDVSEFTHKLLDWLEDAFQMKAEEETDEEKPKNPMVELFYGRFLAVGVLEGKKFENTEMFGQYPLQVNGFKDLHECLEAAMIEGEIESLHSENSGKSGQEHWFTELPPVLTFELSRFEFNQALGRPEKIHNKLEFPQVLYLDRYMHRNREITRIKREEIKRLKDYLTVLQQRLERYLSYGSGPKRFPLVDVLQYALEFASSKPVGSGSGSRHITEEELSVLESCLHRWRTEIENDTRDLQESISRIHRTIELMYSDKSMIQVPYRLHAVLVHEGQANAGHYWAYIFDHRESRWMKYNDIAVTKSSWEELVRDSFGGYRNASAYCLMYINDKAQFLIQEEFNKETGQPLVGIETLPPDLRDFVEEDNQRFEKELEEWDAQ

USP25Δtip L271F = target: T2, USP25Δtip L271F (Homo sapiens, UniProt Q9UHP3, DEL465-537/INS464GSGSGS/L271F); assay: Ub-Rho110 dose–response assay, USP25Δtip L271F
T2 construct: 6xHis or thioredoxin-6xHis (N, cleaved yes); made in house; host or cells: E. coli BL21star (DE3)
T2 sequence (Q9UHP3 with tags, fused parts or gaps L271F/DEL465-477/P478G/DEL482-535/A536G/P537S limits assumed): T1 sequence (Q9UHP3 with tags, fused parts or gaps DEL465-477/P478G/DEL482-535/A536G/P537S limits assumed) with L115F

USP25Δtip D272S = target: T3, USP25Δtip D272S (Homo sapiens, UniProt Q9UHP3, D272S/DEL465-537/INS464GSGSGS); assay: Ub-Rho110 dose–response assay, USP25Δtip D272S
T3 construct: 6xHis or thioredoxin-6xHis (N, cleaved yes); made in house; host or cells: E. coli BL21star (DE3)
T3 sequence (Q9UHP3 with tags, fused parts or gaps D272S/DEL465-477/P478G/DEL482-535/A536G/P537S limits assumed): T1 sequence (Q9UHP3 with tags, fused parts or gaps DEL465-477/P478G/DEL482-535/A536G/P537S limits assumed) with D116S

USP25Δtip E373A = target: T4, USP25Δtip E373A (Homo sapiens, UniProt Q9UHP3, DEL465-537/E373A/INS464GSGSGS); assay: Ub-Rho110 dose–response assay, USP25Δtip E373A
T4 construct: 6xHis or thioredoxin-6xHis (N, cleaved yes); made in house; host or cells: E. coli BL21star (DE3)
T4 sequence (Q9UHP3 with tags, fused parts or gaps E373A/DEL465-477/P478G/DEL482-535/A536G/P537S limits assumed): T1 sequence (Q9UHP3 with tags, fused parts or gaps DEL465-477/P478G/DEL482-535/A536G/P537S limits assumed) with E217A

Work on `Cc1ccc2c(N)c(C(=O)NC3CCc4cc(N5CC6CCC(C5)N6)ccc4C3)sc2n1` (centres unmarked) [FT206] yielded an inhibition at 11.11 µM (USP25Δtip WT; read-out: relative inhibition [%] - USP25 - WT, inhibitor 11.11 µM) of 91.9%, an inhibition at 33.33 µM (USP25Δtip WT; read-out: relative inhibition [%] - USP25 - WT, inhibitor 33.33 µM) of 99% and an inhibition at 100 µM (USP25Δtip WT; read-out: relative inhibition [%] - USP25 - WT, inhibitor 100.00 µM) of 100%. For the same compound, the “t-test vs. USP25 WT control - L271F” value (USP25Δtip L271F; p value, inhibitor IC50 on USP25 L271F compared with USP25 WT) was 4.479E-03, the inhibition at 11.11 µM (USP25Δtip L271F; read-out: relative inhibition [%] - USP25 - L271F, inhibitor 11.11 µM, single replicates) was 90.1% and the inhibition at 33.33 µM (USP25Δtip L271F; read-out: relative inhibition [%] - USP25 - L271F, inhibitor 33.33 µM, single replicates) was 95.6%. For the same compound, the inhibition at 100 µM (USP25Δtip L271F; read-out: relative inhibition [%] - USP25 - L271F, inhibitor 100.00 µM, single replicates) was 100%, the “t-test vs. USP25 WT control - D272S” value (USP25Δtip D272S; p value, inhibitor IC50 on USP25 D272S compared with USP25 WT) was 3.650E-02 and the inhibition at 33.33 µM (USP25Δtip D272S; read-out: relative inhibition [%] - USP25 - D272S, inhibitor 33.33 µM, single replicates) was 87.3%. The inhibition at 100 µM (USP25Δtip D272S; read-out: relative inhibition [%] - USP25 - D272S, inhibitor 100.00 µM, single replicates) was 95.2%, the “t-test vs. USP25 WT control - E373A” value (USP25Δtip E373A; p value, inhibitor IC50 on USP25 E373A compared with USP25 WT) was 3.888E-04 and the inhibition at 11.11 µM (USP25Δtip E373A; read-out: relative inhibition [%] - USP25 - E373A, inhibitor 11.11 µM, single replicates) was 13.3%. The inhibition at 33.33 µM (USP25Δtip E373A; read-out: relative inhibition [%] - USP25 - E373A, inhibitor 33.33 µM, single replicates) was 33.6% and the inhibition at 100 µM (USP25Δtip E373A; read-out: relative inhibition [%] - USP25 - E373A, inhibitor 100.00 µM, single replicates) was 59.9%.
